This test addresses human GluN1/GluN2B NMDA receptors (Homo sapiens, UniProt Q05586+Q13224). The test is described as follows: Cell-based calcium flux (FLIPR) assay on cloned human GluN1/GluN2B ion channels expressed in mammalian cells. The conditions noted are these: standard assay; glutamate ~EC40, 10 μM glycine; stable Tet-On cell line. On the procedure:
5.3. Biological Assays: Effect of Compounds of Formula (I) on Cloned Human GluN1/GluN2B Ion Channels Expressed in Mammalian Cells
NMDA receptors are ion channels that are highly permeable to Ca^2+ ions, rendering it possible to monitor NMDA receptor function using cell-based calcium flux assay. In this assay, co-agonists glutamate and glycine are added to cells heterologously expressing human GluN1/GluN2B NMDA receptors to initiate cellular Ca^2+ influx. The time course of the changes in intracellular calcium is measured using a fluorescent dye and a FLIPR (Fluorometric Imaging Plate Reader) device.
Twenty four hours before measurements, the expression of the NMDA receptors in the stable cell line is induced with Tet-On inducible system in the presence of a non-selective NMDA receptor blocker. On the day of the experiment, cell culture media is carefully washed and the cells are loaded with Calcium 5 Dye Kit (Molecular Devices) in dye loading buffer containing 137 mM NaCl, 4 mM KCl, 2 mM CaCl2, 0.5 mM MgCl2 (standard assay) or 1.5 mM MgCl2 (HTS assay), 10 mM HEPES and 5 mM D-glucose; pH 7.4. After 1 h incubation at the room temperature, the dye is washed away with the assay buffer (137 mM NaCl (standard assay) or 150 mM (HTS assay), 4 mM KCl (standard assay) or 3 mM (HTS assay), 2 mM CaCl2, 0.01 mM EDTA, 10 mM HEPES and 5 mM D-glucose; pH 7.4) In the FLIPR TETRA reader, various concentrations of the test compounds are added to the cells for 5 min while fluorescence is monitored to detect potential agonist activity. Next, co-agonists, glutamate and glycine are added for another 5 minutes. The concentration of glutamate corresponding to ˜EC40 (standard assay) or EC40 (HTS assay) is used to maximize the assay's signal window and ability to detect NMDA receptor antagonists and negative allosteric modulators. A saturating concentration (10 μM) of glycine is also present in the assay. A non-selective NMDA receptor antagonist, (+)MK-801 is used as a positive control for antagonist activity. The fluorescent signal in the presence of test compounds is quantified and normalized to the signal defined by the appropriate control wells.

Each structure is given as a SMILES string. Structures can show the parent of a compound that is named as a salt. Bounds are passed on as bounds.

Chain of human GluN1/GluN2B NMDA receptors (Q13224 27-1484, other chains not shown): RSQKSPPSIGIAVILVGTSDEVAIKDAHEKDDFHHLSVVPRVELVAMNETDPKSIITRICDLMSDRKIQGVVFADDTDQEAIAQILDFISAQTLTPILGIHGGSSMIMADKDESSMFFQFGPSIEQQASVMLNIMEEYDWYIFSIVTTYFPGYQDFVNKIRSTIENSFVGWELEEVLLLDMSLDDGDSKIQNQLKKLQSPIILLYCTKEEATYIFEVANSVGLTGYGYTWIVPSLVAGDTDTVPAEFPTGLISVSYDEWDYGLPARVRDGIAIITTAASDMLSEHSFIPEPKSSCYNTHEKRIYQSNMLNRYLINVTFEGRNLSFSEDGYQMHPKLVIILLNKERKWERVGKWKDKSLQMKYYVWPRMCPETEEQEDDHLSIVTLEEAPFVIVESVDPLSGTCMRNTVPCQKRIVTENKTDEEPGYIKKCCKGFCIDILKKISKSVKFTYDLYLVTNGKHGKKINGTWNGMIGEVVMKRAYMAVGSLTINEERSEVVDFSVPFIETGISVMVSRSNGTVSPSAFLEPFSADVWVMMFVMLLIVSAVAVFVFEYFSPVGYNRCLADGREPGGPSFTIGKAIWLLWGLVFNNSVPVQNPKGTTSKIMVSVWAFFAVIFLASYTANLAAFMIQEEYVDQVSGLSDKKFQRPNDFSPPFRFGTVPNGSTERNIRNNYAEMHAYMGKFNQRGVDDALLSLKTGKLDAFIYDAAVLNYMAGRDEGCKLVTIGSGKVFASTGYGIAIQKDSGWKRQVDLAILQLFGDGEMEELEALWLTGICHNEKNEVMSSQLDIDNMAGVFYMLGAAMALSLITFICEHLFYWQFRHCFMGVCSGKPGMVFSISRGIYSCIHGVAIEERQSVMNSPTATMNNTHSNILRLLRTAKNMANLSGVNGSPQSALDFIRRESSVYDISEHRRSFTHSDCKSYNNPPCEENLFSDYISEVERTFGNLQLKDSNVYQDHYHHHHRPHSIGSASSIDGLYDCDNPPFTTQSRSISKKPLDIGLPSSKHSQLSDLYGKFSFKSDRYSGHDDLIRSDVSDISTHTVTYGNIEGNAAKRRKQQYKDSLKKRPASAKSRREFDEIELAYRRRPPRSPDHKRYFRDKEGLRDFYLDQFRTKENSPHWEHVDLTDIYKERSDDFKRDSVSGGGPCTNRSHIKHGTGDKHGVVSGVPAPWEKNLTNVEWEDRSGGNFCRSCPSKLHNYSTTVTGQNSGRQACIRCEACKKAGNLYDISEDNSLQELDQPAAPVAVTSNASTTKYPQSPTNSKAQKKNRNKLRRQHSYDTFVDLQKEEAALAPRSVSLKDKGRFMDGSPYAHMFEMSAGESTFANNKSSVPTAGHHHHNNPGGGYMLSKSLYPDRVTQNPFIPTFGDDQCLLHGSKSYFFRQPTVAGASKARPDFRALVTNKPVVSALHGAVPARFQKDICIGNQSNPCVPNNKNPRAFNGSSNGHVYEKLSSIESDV

As usually defined, the IC50 is the concentration that gives 50% inhibition. Turning to `O=C1OC2(CNC2)CN1Cc1cncc(-c2ccc(F)c(OC(F)F)c2)c1` [Example 43, 6-[[5-[3-(Difluoromethoxy)-4-fluoro-phenyl]-3-pyridyl]methyl]-8-oxa-2,6-diazaspiro[3.4]octan-7-one Trifluoroacetate Salt], the IC50 is 2620 nM.

For `Cc1cc(-c2cncc(CN3CCOC3=O)c2)ccc1F` [Example 44, 3-[[5-(4-Fluoro-3-methyl-phenyl)-3-pyridyl]methyl]oxazolidin-2-one], the concentration for half-maximal inhibition (IC50) is 12 nM.

As for `COc1ncc(-c2cccc(Cl)c2)cc1CN1CCOC1=O` [Example 109, 3-[[5-(3-Chlorophenyl)-2-methoxy-3-pyridyl]methyl]oxazolidin-2-one], the IC50 was determined as 477 nM.

On to `C[C@@H]1CN(Cc2cc(-c3ccc(F)c(OC(F)F)c3)cnc2C(C)(F)F)C(=O)O1` [Example 149, (5R)-3-[[2-(1,1-Difluoroethyl)-5-[3-(difluoromethoxy)-4-fluoro-phenyl]-3-pyridyl]methyl]-5-methyl-oxazolidin-2-one], for which the IC50 is 127 nM.

In the case of `Cc1ncc(-c2ccc(F)cc2)cc1CN1CCCOC1=O` [Example 68, 3-[[5-(4-Fluorophenyl)-2-methyl-3-pyridyl]methyl]-1,3-oxazinan-2-one], the IC50 is above 3000 nM.

`C[C@@H]1COC(=O)N1Cc1cc(-c2ccc(F)c(OC(F)F)c2)cnc1OC(F)F` [Example 134, (4R)-3-[[-(Difluoromethoxy)-5-[3-(difluoromethoxy)-4-fluoro-phenyl]-3-pyridyl]methyl]-4-methyl-oxazolidin-2-one]: the IC50 stood at 61 nM.

For the compound `CC(F)(F)c1ncc(-c2ccc(F)c(OC(F)F)c2)cc1CN1CC2(CC2)OC1=O` [Example 146, 5-[[2-(1,1-Difluoroethyl)-5-[3-(difluoromethoxy)-4-fluoro-phenyl]-3-pyridyl]methyl]-7-oxa-5-azaspiro[2.4]heptan-6-one], the IC50 came to 212 nM.

Take `C[C@@H]1CN(Cc2cncc(-c3ccc(F)c(C(F)F)c3)c2)C(=O)O1` [Example 33, (5R)-3-[[5-[3-(Difluoromethyl)-4-fluoro-phenyl]-3-pyridyl]methyl]-5-methyl-oxazolidin-2-one]: the IC50 was found to be 16 nM.

On to `CC(C)[C@H]1COC(=O)N1Cc1cncc(-c2ccc(F)c(OC(F)F)c2)c1` [Example 3, (4S)-3-[[5-[3-(Difluoromethoxy)-4-fluoro-phenyl]-3-pyridyl]methyl]-4-isopropyl-oxazolidin-2-one], for which the concentration for half-maximal inhibition (IC50) was 3010 nM.

For the compound `O=C1OCCCN1Cc1cncc(-c2ccc(F)c(C(F)(F)F)c2)c1` [Example 52, 3-[[5-[4-Fluoro-3-(trifluoromethyl)phenyl]-3-pyridyl]methyl]-1,3-oxazinan-2-one], the IC50 stood at 27 nM.

For `COc1ncc(-c2ccc(Cl)c(Cl)c2)cc1CN1CCOC1=O` [Example 106, 3-[[5-(3,4-Dichlorophenyl)-2-methoxy-3-pyridyl]methyl]oxazolidin-2-one], the IC50 came to 33 nM.

Take `C[C@H]1CN(Cc2cc(-c3ccc(F)c(OC(F)F)c3)cnc2C(C)(F)F)C(=O)O1` [Example 148, (5S)-3-[[2-(1,1-Difluoroethyl)-5-[3-(difluoromethoxy)-4-fluoro-phenyl]-3-pyridyl]methyl]-5-methyl-oxazolidin-2-one]: the IC50 came to 147 nM.

With `C[C@H]1CN(Cc2cc(-c3ccc(F)c(C(F)F)c3)cnc2C(C)(F)F)C(=O)O1` [Example 140, (5S)-3-[[2-(1,1-Difluoroethyl)-5-[3-(difluoromethyl)-4-fluoro-phenyl]-3-pyridyl]methyl]-5-methyl-oxazolidin-2-one], the concentration for half-maximal inhibition (IC50) came out at 111 nM.

In the case of `Cc1ncc(-c2ccc(F)c(C)c2F)cc1CN1CCCOC1=O` [Example 71, 3-[[5-(2,4-Difluoro-3-methyl-phenyl)-2-methyl-3-pyridyl]methyl]-1,3-oxazinan-2-one], the IC50 came to 22 nM.

With `Cc1ncc(-c2ccc(F)c(OC(F)F)c2)cc1CN1CC2(CC2)OC1=O` [Example 84, 5-[[5-[3-(Difluoromethoxy)-4-fluoro-phenyl]-2-methyl-3-pyridyl]methyl]-7-oxa-5-azaspiro[2.4]heptan-6-one], the IC50 amounted to 52 nM.

For the compound `CC1(C)CCN(Cc2cncc(-c3ccc(F)c(OC(F)F)c3)c2)C(=O)O1` [Example 10, 3-[[5-[3-(Difluoromethoxy)-4-fluoro-phenyl]-3-pyridyl]methyl]-6,6-dimethyl-1,3-oxazinan-2-one], the half-inhibitory concentration (IC50) was determined as 521 nM.

Consider `C[C@@H]1COC(=O)N1Cc1cc(-c2ccc(F)c(C(F)F)c2)cnc1OC(F)F` [Example 132, (4R)-3-[[2-(Difluoromethoxy)-5-[3-(difluoromethyl)-4-fluoro-phenyl]-3-pyridyl]methyl]-4-methyl-oxazolidin-2-one], for which the IC50 came out at 176 nM.

Turning to `Cc1ncc(-c2ccc(F)c(OC(F)F)c2)cc1CN1CC(C)OC1=O` (stereo in doubt) [Example 86, (5R)-3-[[5-[3-(Difluoromethoxy)-4-fluoro-phenyl]-2-methyl-3-pyridyl]methyl]-5-methyl-oxazolidin-2-one], the IC50 is 20 nM.

Turning to `O=C1OC2(CNC2)CN1Cc1cncc(-c2ccc(F)c(C(F)F)c2)c1` [Example 21, 6-[[5-[3-(Difluoromethyl)-4-fluoro-phenyl]-3-pyridyl]methyl]-8-oxa-2,6-diazaspiro[3.4]octan-7-one Trifluoroacetate Salt], the IC50 stood at 806 nM.

Turning to `COc1ncc(-c2ccc(F)c(C(F)F)c2)cc1CN1CCOC1=O` [Example 122, 3-[[5-[3-(Difluoromethyl)-4-fluoro-phenyl]-2-methoxy-3-pyridyl]methyl]oxazolidin-2-one], the IC50 amounted to 15 nM.

For `C[C@H]1COC(=O)N1Cc1cc(-c2ccc(F)c(OC(F)F)c2)cnc1C(C)(F)F` [Example 145, (4S)-3-[[2-(1,1-Difluoroethyl)-5-[3-(difluoromethoxy)-4-fluoro-phenyl]-3-pyridyl]methyl]-4-methyl-oxazolidin-2-one], the IC50 worked out at 492 nM.

Regarding `O=C1OCc2ccccc2N1Cc1cncc(-c2ccc(F)c(C(F)F)c2)c1` [Example 24, 1-[[5-[3-(Difluoromethyl)-4-fluoro-phenyl]-3-pyridyl]methyl]-4H-3,1-benzoxazin-2-one], the IC50 amounted to 73 nM.

With `Cc1ncc(-c2ccc(F)c(OC(F)F)c2)cc1CN1CC(C)OC1=O` (racemic) [Example 80, (R/S)-3-[[5-[3-(Difluoromethoxy)-4-fluoro-phenyl]-2-methyl-3-pyridyl]methyl]-5-methyl-oxazolidin-2-one], the half-maximal inhibitory concentration (IC50) was found to be 22 nM.

Take `O=C1OCCN1Cc1cc(-c2ccc(F)c(OC(F)F)c2)cnc1C(F)F` [Example 125, 3-[[5-[3-(Difluoromethoxy)-4-fluoro-phenyl]-2-(difluoromethyl)-3-pyridyl]methyl]oxazolidin-2-one]: the IC50 came to 39 nM.

In the case of `COc1ncc(-c2ccc(F)c(OC(F)(F)F)c2)cc1CN1CCOC1=O` [Example 113, 3-[[5-[4-Fluoro-3-(trifluoromethoxy)phenyl]-2-methoxy-3-pyridyl]methyl]oxazolidin-2-one], the IC50 was determined as 13 nM.

`O=C1OCCN1Cc1cc(-c2ccc(F)c(C(F)F)c2)cnc1C(F)F` [Example 124, 3-[[2-(Difluoromethyl)-5-[3-(difluoromethyl)-4-fluoro-phenyl]-3-pyridyl]methyl]oxazolidin-2-one]: the IC50 was 56 nM.

For the compound `O=C1OC(CN2CCOCC2)CN1Cc1cncc(-c2ccc(F)c(OC(F)F)c2)c1` (single isomer, unassigned) [Example 19, (S*)-3-[[5-[3-(Difluoromethoxy)-4-fluoro-phenyl]-3-pyridyl]methyl]-5-(morpholinomethyl)oxazolidin-2-one], the IC50 stood at 1350 nM.

For `[2H]C([2H])(c1cc(-c2ccc(F)c(OC(F)F)c2)cnc1C)N1CCCOC1=O` [Example 56, 3-[Dideuterio-[5-[3-(difluoromethoxy)-4-fluoro-phenyl]-2-methyl-3-pyridyl]methyl]-1,3-oxazinan-2-one], the IC50 was 9 nM.

With `Cc1ncc(-c2cccc(C(F)(F)F)c2)cc1CN1CCCOC1=O` [Example 74, 3-[[2-Methyl-5-[3-(Trifluoromethyl)phenyl]-3-pyridyl]methyl]-1,3-oxazinan-2-one], the IC50 stood at 50 nM.

Consider `CC1COC(=O)N1Cc1cncc(-c2ccc(F)c(C(F)F)c2)c1` (racemic) [Example 25, (R/S)-3-[[5-[3-(Difluoromethyl)-4-fluoro-phenyl]-3-pyridyl]methyl]-4-methyl-oxazolidin-2-one], for which the IC50 was determined as 31 nM.

Regarding `COc1ncc(-c2cc(C)cc(F)c2)cc1CN1CCOC1=O` [Example 104, 3-[[5-(3-Fluoro-5-methyl-phenyl)-2-methoxy-3-pyridyl]methyl]oxazolidin-2-one], the IC50 was determined as 159 nM.
